# Results taken from patent US20230011398A1, “COMBINATION THERAPY APPROACH TO ELIMINATE HIV INFECTIONS” (priority 2019, published 2023).
# Tested on: CMT latently infected with HIV-1
# Experiment: HIV-1 latency reversal in latently infected central memory T cells (p24 staining, HIV-1 mRNA RT-PCR)
# Assay type: cell-based, human
# Conditions: latently infected cells, pol RT-PCR
# Description: Flow cytometry. The following antibodies from Biolegend were used for flow cytometry: Pacific Blue-anti-mouse CD45 (1:100, 103126, clone 30-F11,) APC-anti-human CD45 (1:100, 304012, clone HI30), Pacific Blue-anti-human CD19 (1:100, 302232, clone HIB19), PE-anti-human CD4 (1:100, 317414, clone OKT4), APC/Fire-750-anti-human CD8 (1:100, 34474, clone SK1), FITC-anti-human CD56 (1:100, 392413, clone QA17A16), Pacific Blue-anti-human CD19 (1:100, 302232, clone HIB19), Pacific Blue-anti-human CD3 (1:100, 300329, clone HIT3a), PE/Cy7-anti-HLA-HLA-DR, DP, DQ (1:100, 361708, clone Tü139), PerCP/Cy5.5-anti-human CD11b (1:100, 301327, clone ICRF44), APC/Fire-750-anti-human CD163 (1:100, 333633, clone GHI/61), PE-anti-human CD123 (1:100, 306005, clone 6H6), Alexa Fluor 488 anti-human CD11c (1:100, 301618, clone 3.9), PerCP/Cy5.5-anti-human CD3 (1:100, 300328, clone HIT3a), PerCP/Cy5.5 anti-human CD123 (1:100, 306016, clone 6H6), FITC-anti-mouse CD45 (1:100, 103108, clone 30-F11), PE/Cy7 anti-human CD197 (CCR7) (1:100, 353226, clone G043H7), PE-anti-human CD45R0 (1:100, 304244, clone UCHL1), FITC-anti-human CD45RA (1:100, 304148, clone HI100) and Alexa Fluor 488-anti-CD68 (1:30, 333812, clone Y1/82A), PerCP/Cy5.5-anti-human CD19 (1:100, 302230, clone HIB19), PE-anti-human CD27 (1:100, 356406, clone M-T271) and Pacific Blue-anti-human IgD (1:100, 348224, clone IA6-2). PE-anti-human CD3 (1:100, 556612, clone SP34) and V50-anti-human CD4 (1:100, 560345, clone RPA-T4) were from BD Biosciences. The cells stained with indicated antibodies were analyzed using a BD LSR II flow cytometer (BD Biosciences). To detect HIV-1 p24, spleen cells from Hu-HSC mice were stimulated with 5 μg/ml PHA (Sigma) and 6 ng/ml IL-2 (Biolegend). The cells were stained for T cell markers, followed by fixation and permeabilization using the Cytofix/Cytoperm buffer (BD Bioscience) and intracellular staining with PE-conjugated anti-p24 (1:30, 6604667, clone KC57, Beckman Coulter). The cells were analyzed by flow cytometry using a BD LSR II flow cytometer (BD Bioscience) and FlowJo software (version 10.5.3, BD Bioscience).
# T cell isolation and infection with HIV-1. Peripheral blood mononuclear cells (PBMCs) of anonymous healthy donors from the Gulf Coast Blood Center were used to purify CD4^+ T cells with anti-CD4 MACS beads (Miltenyi Biotec). CD3^+CD4^+CD45RA^+CD45RO^−CCR7^+ naïve T cells, CD3^+CD4^+CD45RA^−CD45RO^+CCR7+ central memory T cells (CMT) and CD3^+CD4^+CD45RA^−CD45RO^+CCR7^− effector memory T cells (EMT) were sorted using a BD FACSAria flow cytometer (BD Bioscience). Naive CD4^+ T cells were stimulated with 5 μg/ml PHA and 6 ng/ml IL-2 in RPMI complete medium for 2 days to generate activated CD4^+ T cells. Sorted T cell subsets or activated T cells were infected with HIV-1 CXCR4-tropic NL4-3 or CCRS-tropic AD8 (both virus clones were obtained from the NIH AIDS Reagent Program) at the indicated MOI for 2 h. The cells were washed with PBS and cultured in RPMI complete medium containing 30 nM CCL19 (Biolegend) and 0.3 ng/ml IL-2 (Biolegend) and for 4 days to establish latent HIV infection as described.
# Naïve T cells, activated T cells, CMT or EMT with or without infection with HIV-1 (NL4-3, 1 MOI) were cultured for 4 days in the presence of 30 nM CCL19 and 0.3 ng/ml IL-2 for 4 days to establish latent HIV infection. The cells with or without HIV-1 infections were stimulated with 0.1 μM IDB (Ingenol-3,20-dibenzonate, ENZO Life Sciences) in the presence of 0.2 μM ABT-263 (Adooq Bioscience), 2 μM SAR405 (MedChemExpress) or 10 μM chloroquine (CQ, Sigma) as indicated for 48 h. The cells were then incubated with 1 μM FITC-DEVD-FMK (Biovision), followed by staining with APC-Annexin V (Biolegend) and intracellular staining with PE-anti-HIV p24. The cells were analyzed by flow cytometry. The percentage of cell death was calculated by the loss of live cells negative for annexin V and DEVD staining by comparing treated and untreated groups: (untreated—treated)/untreated x 100%. […]
smiles,measurement,value
"CC1=C[C@]23C(=O)[C@@H](C=C(COC(=O)c4ccccc4)[C@@H](O)[C@]2(O)[C@H]1OC(=O)c1ccccc1)[C@H]1[C@@H](C[C@H]3C)C1(C)C [IDB, ingenol 3,20-dibenzoate]",latency reversal observed by expression of HIV-1 mRNA after stimulation,Latency reversal was also observed
